Tests used:
detrusor instability = details: cited from earlier work; for Effect in patients with detrusor instability: double-blind controlled studies; for Gastrointestinal side effects: patients with detrusor instability
[1] = test system: rhythmic bladder voiding contractions; test: Volume-induced rhythmic bladder voiding contractions in anaesthetized rats; assay type: in vivo, rat; details: for Bladder quiescence (min ± S.E.): 60 min observation; for ED10 min (dose inducing a 10 min absence of bladder contractions) / Potency in inhibiting bladder voiding contractions (ED10min) compared with morphine: i.v.; for ED10 min (dose inducing a 10 min absence of bladder contractions): linear regression analysis; for Potency in inhibiting bladder voiding contractions (ED10min) compared with morphine: relative to morphine
Method: In this method, the urinary bladder is catheterized through the external urethra with a polyethylene tubing filled with physiological saline. The external urethra is then ligated and connected to a pressure recording device. […] Test compounds are then administered intravenously and their effect evaluated for the following 60 min.
The animals were housed with free access to food and water and maintained on a 12 h alternating light-dark cycle at 22-24° C. for at least one week, except during the experiment. […] The catheter was then tied in place with a ligature around the external urethral orifice and connected to a conventional pressure transducer (Statham P23 ID/P23 XL). […] The bladder was then filled via the recording catheter with incremental volumes of warm (37° C.) saline until reflex bladder voiding contractions occurred (usually upon addition of 0.8-1.5 ml saline).
Bioactivity was assessed in individual animals (using 6-10 rats per dose) by measuring the duration of bladder quiescence (i.e., the duration of time during which no contractions occurred) over a 60 min period.

[2] = test system: bladder contractions elicited by arachidonic acid; details: arachidonic acid on serosal surface of bladder; cited from earlier work
[3] = test system: isolated rat bladder strips; details: 1×10^−4M, 40 mM potassium; cited from earlier work
bladder reflexes = details: following surgery or experimentally-induced inflammation; cited from earlier work

## COc1ccc2c(c1)c(CC(=O)O)c(C)n2C(=O)c1ccc(Cl)cc1 [Indomethacin]
Detrusor instability
  Effect in patients with detrusor instability: favorable effects
  Gastrointestinal side effects: high incidence of gastrointestinal side effects
[1]; 0.3 mg/kg i.v.
  Bladder quiescence (min ± S.E.): 4.39 ± 1.08 min
[1]; 1.0 mg/kg i.v.
  Bladder quiescence (min ± S.E.): 7.91 ± 1.79 min
[1]; 3.0 mg/kg i.v.
  Bladder quiescence (min ± S.E.): 35.00 ± 5.78 min
[1]
  ED10 min (dose inducing a 10 min absence of bladder contractions): ED10 min = 0.652 mg/kg

## CN1CC[C@]23c4c5ccc(O)c4O[C@H]2[C@@H](O)C=C[C@H]3[C@H]1C5 [Morphine]
[1]; 0.01 mg/kg i.v.
  Bladder quiescence (min ± S.E.): 2.76 ± 0.93 min
[1]; 0.03 mg/kg i.v.
  Bladder quiescence (min ± S.E.): 6.89 ± 2.11 min
[1]; 0.1 mg/kg i.v.
  Bladder quiescence (min ± S.E.): 13.83 ± 2.40 min
[1]; 0.3 mg/kg i.v.
  Bladder quiescence (min ± S.E.): 18.17 ± 3.60 min
[1]
  ED10 min (dose inducing a 10 min absence of bladder contractions): ED10 min = 0.050 mg/kg

## C[C@H](C(=O)O)c1cccc(C(=O)c2ccccc2)c1 [dexketoprofen]
[2]
  Effect on bladder contractions elicited by arachidonic acid: blocked

## CS(=O)(=O)c1ccc(C2=C(c3ccccc3)C(=O)OC2)cc1 [Compound C]
[1]; 0.03 mg/kg i.v.
  Bladder quiescence (min ± S.E.): 3.75 ± 0.96 min
[1]; 0.1 mg/kg i.v.
  Bladder quiescence (min ± S.E.): 4.85 ± 1.80 min
[1]; 0.3 mg/kg i.v.
  Bladder quiescence (min ± S.E.): 16.44 ± 6.13 min
[1]
  ED10 min (dose inducing a 10 min absence of bladder contractions): ED10 min = 0.135 mg/kg
  Potency in inhibiting bladder voiding contractions (ED10min) compared with morphine: slightly lower

## Cc1ccc(-c2cc(C(F)(F)F)nn2-c2ccc(S(N)(=O)=O)cc2)cc1 [Compound B]
[1]; 0.01 mg/kg i.v.
  Bladder quiescence (min ± S.E.): 4.05 ± 0.68 min
[1]; 0.1 mg/kg i.v.
  Bladder quiescence (min ± S.E.): 10.53 ± 2.04 min
[1]; 1.0 mg/kg i.v.
  Bladder quiescence (min ± S.E.): 28.35 ± 5.19 min
[1]
  ED10 min (dose inducing a 10 min absence of bladder contractions): ED10 min = 0.044 mg/kg
  Potency in inhibiting bladder voiding contractions (ED10min) compared with morphine: similar

## CS(=O)(=O)Nc1ccc([N+](=O)[O-])cc1Oc1ccccc1 [nimesulide]
[3]
  Inhibition of contractility: 42%

## CC(C(=O)O)c1ccc(-c2ccccc2)c(F)c1 (centres unmarked) [flurbiprofen]
Detrusor instability
  Effect in patients with detrusor instability: favorable effects
  Gastrointestinal side effects: high incidence of gastrointestinal side effects

## CS(=O)(=O)Nc1ccc([N+](=O)[O-])cc1OC1CCCCC1 [NS-398]
Bladder reflexes
  Effect on bladder reflexes: normalized bladder reflexes
